From US9308182B2 (TEVA PHARMACEUTICAL INDUSTRIES, LTD., priority 2012, dated 2016)
Like-named read-outs stand apart in the source and are kept apart here.

Key:
[1] = target: MAO-A (Rattus norvegicus, UniProt P21396); assay: in vivo; conditions: rat, sc
From the text: (§1) ALZET® osmotic minipumps are described in Perkins L, Peer C, and Murphy-Hackley P. “Chapter 21: The use of mini-osmotic pumps in continuous infusion studies” in Handbook of Pre-Clinical Continuous Intravenous Infusion, (Smith & Healing, eds., Taylor and Francis, 2000), the contents of which are incorporated herein by reference.
(§2) The osmotic minipumps were inserted subcutaneously with a single surgical procedure: after clipping the fur from the dorsal area and cleaning the skin with antiseptic skin preparation, about 1 cm long incision was made on the dorsum of the animal, midway between both scappulae. The pump was placed along the axis of the body to one side of the backbone. The incision was positioned about 1-2 cm caudal to the estimated caudal end of the minipump when it is in place.
(§3) After two weeks of treatment the animals were sacrificed. From each rat, brain (half) and a part of liver were dissected and frozen. The intestine was excised about ½ cm below the stomach about 1-2 cm long, washed with sucrose 0.32 Molar and frozen at −70° C.
(§4) Tissue homogenates were pre incubated (37° C.) in the presence of clorgyline or deprenyl to inhibit the activity of MAO-A or MAO-B respectively. For MAO-B determination, samples were incubated for 20 minutes with C^14 PEA 10 μM and for MAO-A determination samples were incubated 30 minutes with C^14 −5HT 100 μM as substrate Termination of the reaction was done by acidification. The labeled metabolites were extracted into toluene:ethyl acetate, and counted in a β counter.

[2] = target: MAO-B (Rattus norvegicus, UniProt P19643); assay: in vivo; conditions: for MAO-B activity, brain / MAO-B activity, intestine / MAO-B activity, liver: two weeks; for inhibition at 0.02 mg/kg/day / inhibition at 0.4 mg/kg/day / inhibition at 0.8 mg/kg/day / inhibition at 0.05 mg/kg/day / inhibition at 0.1 mg/kg/day / inhibition at 0.2 mg/kg/day: rat
From the text: as §1, §2, §3, §4

[3] = rats
From the text: as §1
ALZET® pumps groups were weighed on the first and last day of the study. The oral administered groups were weighed on the first day and also on day 6 and 13 of the study.

[4] = AZILECT Product Label, May 2006; cited from earlier work
[5] = read-out: Percent of MAO-A inhibition, liver
[6] = po, read-out: Percent of MAO-B inhibition, brain
[7] = po, read-out: Percent of MAO-B inhibition, intestine
[8] = po, read-out: Percent of MAO-B inhibition, liver
[9] = sc, read-out: Percent of MAO-B inhibition, brain
[10] = sc, read-out: Percent of MAO-B inhibition, intestine
[11] = sc, read-out: Percent of MAO-B inhibition, liver

Sequence of MAO-B (P19643 whole entry): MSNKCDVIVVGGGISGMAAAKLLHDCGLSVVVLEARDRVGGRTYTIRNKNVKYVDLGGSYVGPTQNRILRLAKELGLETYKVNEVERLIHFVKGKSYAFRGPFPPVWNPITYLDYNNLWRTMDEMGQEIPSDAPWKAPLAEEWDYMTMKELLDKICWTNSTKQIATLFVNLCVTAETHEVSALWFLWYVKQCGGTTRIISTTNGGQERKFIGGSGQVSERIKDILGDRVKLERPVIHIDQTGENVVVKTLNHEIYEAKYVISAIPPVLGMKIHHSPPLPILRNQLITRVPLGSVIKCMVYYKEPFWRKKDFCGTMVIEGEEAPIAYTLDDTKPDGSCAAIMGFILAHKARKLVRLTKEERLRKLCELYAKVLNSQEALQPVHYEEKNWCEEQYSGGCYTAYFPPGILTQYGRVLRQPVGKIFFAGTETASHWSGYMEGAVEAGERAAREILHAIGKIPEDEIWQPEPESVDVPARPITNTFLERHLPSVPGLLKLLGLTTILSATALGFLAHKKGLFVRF
Sequence of MAO-A (P21396 whole entry, the tested form may be a part): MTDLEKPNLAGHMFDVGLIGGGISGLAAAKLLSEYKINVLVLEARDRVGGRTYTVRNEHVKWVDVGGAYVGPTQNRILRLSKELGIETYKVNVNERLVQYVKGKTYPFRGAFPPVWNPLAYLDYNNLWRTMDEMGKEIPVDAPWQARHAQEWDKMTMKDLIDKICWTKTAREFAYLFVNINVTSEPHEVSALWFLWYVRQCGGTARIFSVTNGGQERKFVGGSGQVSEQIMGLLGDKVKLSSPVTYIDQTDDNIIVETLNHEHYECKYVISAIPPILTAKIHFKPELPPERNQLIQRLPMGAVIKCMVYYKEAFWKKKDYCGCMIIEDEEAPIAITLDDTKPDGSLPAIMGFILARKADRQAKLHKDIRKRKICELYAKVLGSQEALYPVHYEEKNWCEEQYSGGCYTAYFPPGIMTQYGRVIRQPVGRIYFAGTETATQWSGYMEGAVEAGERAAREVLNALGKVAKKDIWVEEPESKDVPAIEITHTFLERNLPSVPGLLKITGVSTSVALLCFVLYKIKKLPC

inhibition at 0.8 mg/kg/day ([1]; read-out: Percent of MAO-A inhibition, intestine): 42%
inhibition at 0.02 mg/kg/day [1, 5]: 1%
inhibition at 0.05 mg/kg/day [1, 5]: 1%
inhibition at 0.1 mg/kg/day [1, 5]: 13%
inhibition at 0.2 mg/kg/day [1, 5]: 71%
inhibition at 0.4 mg/kg/day [1, 5]: 99%
inhibition at 0.8 mg/kg/day [1, 5]: 100%
MAOB inhibition in the brain, ALZET pumps versus oral group ([2]; brain): No change
MAO-B activity, brain ([2]; brain, oral, 0.02 mg/kg/day (salt)): 1586 dpm
MAO-B activity, brain ([2]; brain, oral, 0.05 mg/kg/day (salt)): 494 dpm
MAO-B activity, brain ([2]; brain, oral, 0.1 mg/kg/day (salt)): 181 dpm
MAO-B activity, brain ([2]; brain, oral, 0.2 mg/kg/day (salt)): 69 dpm
MAO-B activity, brain ([2]; brain, oral, 0.4 mg/kg/day (salt)): 34 dpm
MAO-B activity, brain ([2]; brain, oral, 0.8 mg/kg/day (salt)): 9 dpm
MAO-B activity, brain ([2]; brain, sc ALZET pumps, 0.02 mg/kg/day (salt)): 1229 dpm
MAO-B activity, brain ([2]; brain, sc ALZET pumps, 0.05 mg/kg/day (salt)): 346 dpm
MAO-B activity, brain ([2]; brain, sc ALZET pumps, 0.1 mg/kg/day (salt)): 198 dpm
MAO-B activity, brain ([2]; brain, sc ALZET pumps, 0.2 mg/kg/day (salt)): 75 dpm
MAO-B activity, brain ([2]; brain, sc ALZET pumps, 0.4 mg/kg/day (salt)): 38 dpm
MAOB inhibition in the intestine and liver, ALZET pumps compared with oral administration ([2]; intestine and liver, daily dose of up to 0.1 mg/kg): lower
maximal MAO-B inhibition in the intestine ([2]; intestine, both routes (oral, ALZET pumps)): about 85%
MAO-B activity, intestine ([2]; intestine, oral, 0.02 mg/kg/day (salt)): 3633 dpm
MAO-B activity, intestine ([2]; intestine, oral, 0.05 mg/kg/day (salt)): 3115 dpm
MAO-B activity, intestine ([2]; intestine, oral, 0.1 mg/kg/day (salt)): 2493 dpm
MAO-B activity, intestine ([2]; intestine, oral, 0.2 mg/kg/day (salt)): 2424 dpm
MAO-B activity, intestine ([2]; intestine, oral, 0.4 mg/kg/day (salt)): 2108 dpm
MAO-B activity, intestine ([2]; intestine, oral, 0.8 mg/kg/day (salt)): 2105 dpm
MAO-B activity, intestine ([2]; intestine, sc ALZET pumps, 0.02 mg/kg/day (salt)): 8265 dpm
MAO-B activity, intestine ([2]; intestine, sc ALZET pumps, 0.05 mg/kg/day (salt)): 4346 dpm
MAO-B activity, intestine ([2]; intestine, sc ALZET pumps, 0.1 mg/kg/day (salt)): 3225 dpm
MAO-B activity, intestine ([2]; intestine, sc ALZET pumps, 0.2 mg/kg/day (salt)): 2391 dpm
MAO-B activity, intestine ([2]; intestine, sc ALZET pumps, 0.4 mg/kg/day (salt)): 1852 dpm
MAO-B activity, intestine ([2]; intestine, sc ALZET pumps, 0.8 mg/kg/day (salt)): 1879 dpm
MAO-B activity, liver ([2]; oral, 0.02 mg/kg/day (salt)): 1127 dpm
MAO-B activity, liver ([2]; oral, 0.05 mg/kg/day (salt)): 511 dpm
MAO-B activity, liver ([2]; oral, 0.1 mg/kg/day (salt)): 224 dpm
MAO-B activity, liver ([2]; oral, 0.2 mg/kg/day (salt)): 136 dpm
MAO-B activity, liver ([2]; oral, 0.4 mg/kg/day (salt)): 38 dpm
MAO-B activity, liver ([2]; sc ALZET pumps, 0.02 mg/kg/day (salt)): 1974 dpm
MAO-B activity, liver ([2]; sc ALZET pumps, 0.05 mg/kg/day (salt)): 912 dpm
MAO-B activity, liver ([2]; sc ALZET pumps, 0.1 mg/kg/day (salt)): 486 dpm
MAO-B activity, liver ([2]; sc ALZET pumps, 0.2 mg/kg/day (salt)): 312 dpm
MAO-B activity, liver ([2]; sc ALZET pumps, 0.4 mg/kg/day (salt)): 181 dpm
MAO-B activity, liver ([2]; sc ALZET pumps, 0.8 mg/kg/day (salt)): 166 dpm
inhibition at 0.02 mg/kg/day [2, 6]: 83%
inhibition at 0.4 mg/kg/day [2, 6]: 100%
inhibition at 0.8 mg/kg/day [2, 6]: 100%
inhibition at 0.02 mg/kg/day [2, 7]: 74%
inhibition at 0.05 mg/kg/day [2, 7]: 78%
inhibition at 0.1 mg/kg/day [2, 7]: 82%
inhibition at 0.2 mg/kg/day [2, 7]: 83%
inhibition at 0.4 mg/kg/day [2, 7]: 85%
inhibition at 0.8 mg/kg/day [2, 7]: 85%
inhibition at 0.02 mg/kg/day [2, 8]: 83%
inhibition at 0.05 mg/kg/day [2, 8]: 92%
inhibition at 0.8 mg/kg/day [2, 8]: 100%
inhibition at 0.4 mg/kg/day [2, 9]: 100%
inhibition at 0.8 mg/kg/day [2, 9]: 100%
inhibition at 0.02 mg/kg/day [2, 10]: 37%
inhibition at 0.05 mg/kg/day [2, 10]: 67%
inhibition at 0.1 mg/kg/day [2, 10]: 76%
inhibition at 0.2 mg/kg/day [2, 10]: 82%
inhibition at 0.4 mg/kg/day [2, 10]: 86%
inhibition at 0.8 mg/kg/day [2, 10]: 86%
inhibition at 0.02 mg/kg/day [2, 11]: 67%
inhibition at 0.05 mg/kg/day [2, 11]: 85%
inhibition at 0.1 mg/kg/day [2, 11]: 92%
weight gain ([3]; 0.8 mg/kg/day delivered by ALZET pumps, first to last day of two-week study): 1.3%
weight gain ([3]; all oral and ALZET pump groups except 0.8 mg/kg/day by ALZET pumps): 6-9%
SMILES: C#CCN[C@@H]1CCc2ccccc21 [rasagiline, R(+)-N-propargyl-l-aminoindan]
absolute bioavailability [4]: about 36%
